These results are taken from patent US9458463B2, “Method for treatment of diabetes by a small molecule inhibitor for GRK5” (MAX-PLANCK-GESELLSCHAFT ZUR FÖRDERUNG DER WISSENSCHAFTEN …, priority 2010, dated 2016).

One assay deals with T1, full length GRK5 (Homo sapiens, UniProt P34947).
T1 construct: 6/2 fold concentrated full length GRK5 (Millipore, #14-714) in reaction buffer; purchased Millipore 14-714
Put plainly: GRK5 kinase activity assay, ADP Glo Kinase Assay technology (Promega). The assay is classed as biochemical. Particulars: group II; ADP Glo Kinase Assay (Table 9-B). On the procedure:
The maximal compound assay concentration was set to 100 μM, representing the compound assay concentration used in the primary screen.
Increasing concentrations of GRK5 are incubated together with 100 μM ATP in the absence and presence of 10 μM casein in a reaction buffer. Within this incubation non-phosphorylated casein is converted into phosphorylated casein and ATP is converted into ADP. Thereafter nonconverted ATP is digested into AMP by addition of the ADP-Glo™ Reagent. Subsequently the ADP that is produced by GRK5 activity is phosphorylated back to ATP by addition of Promega Kinase Detection Reagent. These ATP levels serve as measure for the GRK5 activity and are quantified by a luciferase/luciferin reaction.
For GRK5 kinase activity assay, the following protocol was used:
The reaction buffer used was composed of: 20 mM MES pH 6.0, 1 mM DTT, 10 mM MgCl2, 0.01% Tween20 and the reaction volume was 6 μL.
Firstly 4 μL 6/4 fold concentrated substrate and 6/4 fold concentrated ATP in 1 fold concentrated reaction buffer are added to each well of the assay plate. Subsequently 67 nL […] concentrated test compound in 100% DMSO are added to each well except to C− and C+ wells using pin tool. Then 67 nL 100% DMSO are pipetted to C− (no kinase, no compound) and C+ (no compound) wells using pin-tool and 2 μL reaction buffer are added to C− wells. […] After incubation for 120 min. at room temperature 6 μL ADP-Glo™ Reagent (ADP Glo™ Kinase Assay Kit: Promega, V9101) are added to each well to stop the kinase reaction and deplete the unconsumed ATP. After a second incubation for 40 min. at room temperature 12 μL of Kinase Detection Reagent are added to convert ADP to ATP and start luciferase/luciferin reaction for detection of ATP. […] Finally, after incubation for 40 min at room temperature the luminescence intensity was measured.
The activity of the compounds was classified according to IC50 for binding sites of Grk5 into the following ranges:
8800 Customer compounds were screened for their ability to inhibit the enzymatic activity of GRK5. Screening was performed using the ADP Glo™ Kinase Assay technology (Promega). The small molecular weight compounds were delivered at 10 mM stock concentration and were tested at a final assay concentration of 100 μM.
IC50 values were determined in triplicates at 12 concentrations with a dilution factor of three. Triplicates were measured on three different assay plates. The maximal compound assay concentration was set to 100 μM representing the compound assay concentration used in the primary screen. A larger maximal compound assay concentration could not be achieved since the maximal compound concentration on the compound plates was 10 mM (>1% DMSO concentration in the assay).

The next assay has as its system 3T3-L1 cells. Put plainly: Cell viability assay (CellTiter-Glo / automated cell number) in 3T3-L1. The assay is classed as cell-based. Particulars: Mus musculus, read-out: Inhibition of cell viability IC50. From the text:
(§1) Luminescent cell viability assay. For the detection of cell viability, the CellTiter-Glo® Luminescent Cell Viability Assay was used. This test is based on a luciferase reaction to measure the amount of ATP in cells. This correlates directly with the number of cells and their viability because cells lose the ability to synthesize ATP directly after e.g. loss of membrane integrity or a cytotoxic event. The protocol was adapted to 24 well plates and to the different culture conditions resulting in a standardized protocol which is described below. Cell lysis, inhibition of endogenous ATPases and detection of ATP was performed by adding the CellTiter-Glo® Reagent to the culture wells. Per well, 100 μl reagent were mixed with the same volume of proper Medium. Lysing of the cells took place by 10 min incubation at RT and moderate shaking. Three times 50 μl cell lysate was transferred into a white 96 well plate to eliminate stray light, and the bioluminescence was measured.
(§2) In a 96 well dish 10000 cells per well (100 μl) were seed and treated for 72 h. At the end of the treatment, cells were fixed with 4% paraformaldehyde in PBS for 15 minutes, permeabilized with 0.1% triton-X 100 in PBS for 15 minutes and stained with Hoechst 33342 (20 μg/ml in PBS; dilute from 20 mg/ml stock) directly to cells in 100 μl medium in PBS for 30 minutes at 37° C. Stained cells were imaged with a Cellomics ArrayScan VT I automated microscope. Images were analyzed with vHCS Scan Target Activation software v5.1.2 to identify apoptotic cells. Six fields per well of a 96 well plate we re-imaged at 10× magnification. First, cells were identified by their nuclei staining in channel 1 of Cellomics and their amount. Staining intensity was plotted and compared between NT controls and compound treated cells. Finally, data was obtained using vHCS View software v 5.1.2 and the numbers of cells present in the 96 well were identified as “Valid Object Count” whereas the percentage of infection was determined as “% selected”. IC50 values have been calculated accordingly.
Background: Cellular ATP, detected with luciferase, serves as a proxy for viable cell number.

The next assay has as its system beta TC6 cells. Put plainly: Cell viability assay (CellTiter-Glo / automated cell number) in beta TC6. The following applies: Mus musculus, read-out: Inhibition of cell viability IC50. The assay is classed as cell-based.
Text: as §1, §2

Another assay has as its system C2C12 cells. Description: Cell viability assay (CellTiter-Glo / automated cell number) in C2C12. The class given is cell-based. Particulars: Mus musculus, read-out: Inhibition of cell viability IC50.
Text: as §1, §2

For a further assay, the system named is HepG2 cells. Description: Cell viability assay (CellTiter-Glo / automated cell number) in HepG2. The class given is cell-based. The following applies: Homo sapiens, read-out: Inhibition of cell viability IC50.
Text: as §1, §2

Each structure is given as a SMILES string. Bounds are passed on as bounds.

T1 sequence (P34947 whole entry): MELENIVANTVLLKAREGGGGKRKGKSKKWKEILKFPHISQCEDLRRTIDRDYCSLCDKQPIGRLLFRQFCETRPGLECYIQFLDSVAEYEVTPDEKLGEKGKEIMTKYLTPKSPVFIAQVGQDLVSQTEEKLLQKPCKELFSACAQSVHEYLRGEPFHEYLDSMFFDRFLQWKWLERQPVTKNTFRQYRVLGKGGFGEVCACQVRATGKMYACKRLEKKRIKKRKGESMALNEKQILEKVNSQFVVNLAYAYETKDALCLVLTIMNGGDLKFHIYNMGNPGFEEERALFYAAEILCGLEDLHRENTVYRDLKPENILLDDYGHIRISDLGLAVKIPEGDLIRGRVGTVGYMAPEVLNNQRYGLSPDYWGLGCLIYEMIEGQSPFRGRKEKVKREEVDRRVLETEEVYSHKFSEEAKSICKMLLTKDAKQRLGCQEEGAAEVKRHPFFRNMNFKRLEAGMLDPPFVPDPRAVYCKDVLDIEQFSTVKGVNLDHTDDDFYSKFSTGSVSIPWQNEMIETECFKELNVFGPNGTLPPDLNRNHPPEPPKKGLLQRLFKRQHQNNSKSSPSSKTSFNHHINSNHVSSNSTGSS

What is called IC50 is the concentration that inhibits the measured activity by half. For `COC(=O)[C@@H](Cc1ccccc1)NC(=O)c1c(C)[nH]c(/C=C2\C(=O)Nc3ccc(C(=O)O)cc32)c1C` [II.140, (3Z)-3-[4-((1R)-1-methoxycarbonyl-2-phenyl-ethylcarbamoyl)-3,5-dimethyl-1H-pyrrol-2-ylmethylene]-2-oxo-2,3-dihydro-1H-indole-5-carboxylic acid], the IC50 is 1000 to 2000 nM on full length GRK5; 4000 nM with 3T3-L1 cells; over 10000 nM in the assay with beta TC6 cells; over 10000 nM with C2C12 cells; over 10000 nM in the assay on HepG2 cells.

Take `CCC(NC(=O)c1ccc2c(c1)/C(=C/c1[nH]c(C)c(C(=O)NCCN3CCCC3)c1C)C(=O)N2)c1ccc(Cl)cc1` (stereo not drawn) [II.13, (3Z)-N-[1-(4-chlorophenyl)propyl]-3-({3,5-dimethyl-4-[(2-pyrrolidin-1-ylethyl)carbamoyl]-1H-pyrrol-2-yl}methylene)-2-oxoindoline-5-carboxamide]: the concentration for half-maximal inhibition (IC50) at full length GRK5 was 100 to 1000 nM; in the assay on 3T3-L1 cells, over 10000 nM; in the assay on beta TC6 cells, 1630 nM; in the assay on C2C12 cells it was 4610 nM; in the assay with HepG2 cells it was 1590 nM.

Turning to `C[C@@H](NC(=O)c1ccc2c(c1)/C(=C/Nc1ccc(CN3CCCCC3)cc1)C(=O)N2)c1ccccc1` [II.78, (3Z)-2-oxo-N-[(1R)-1-phenylethyl]-3-({[4-(piperidin-1-ylmethyl)phenyl]amino}methylene)indoline-5-carboxamide], the IC50 at full length GRK5 is under 100 nM; in the assay on 3T3-L1 cells, over 10000 nM; in the assay with beta TC6 cells, over 10000 nM; in the assay on C2C12 cells, over 10000 nM; in the assay with HepG2 cells it was 5730 nM.

For the compound `CCC(NC(=O)c1ccc2c(c1)/C(=C/c1[nH]c(C)c(CCC(=O)NCCN(CC)CC)c1C)C(=O)N2)c1cccc(Cl)c1` (stereo not drawn) [II.135, (3Z)-3-{4-[2-(2-diethylamino-ethylcarbamoyl)-ethyl]-3,5-dimethyl-1H-pyrrol-2-ylmethyiene}-2-oxo-2,3-dihydro-1H-indole-5-carboxylic acid [1-(3-chloro-phenyl)-propyl]-amide], the 50% inhibitory concentration (IC50) on full length GRK5 is under 100 nM; with 3T3-L1 cells, 1350 nM; in the assay with beta TC6 cells it was 1550 nM; with C2C12 cells, over 10000 nM; in the assay with HepG2 cells it was 1850 nM.

Consider `COc1ccc([C@@H](C)NC(=O)c2ccc3c(c2)/C(=C/c2[nH]c(C)c(C(=O)N4CCN(C)CC4)c2C)C(=O)N3)cc1` [II.21, (3Z)-3-({3,5-dimethyl-4-[(4-methylpiperazin-1-yl)carbonyl]-1H-pyrrol-2-yl}methylene)-N-[(1R)-1-(4-methoxyphenyl)ethyl]-2-oxoindoline-5-carboxamide], for which the IC50 was 2000 to 10000 nM on full length GRK5; 1310 nM with 3T3-L1 cells; 4070 nM in the assay with beta TC6 cells; 9830 nM in the assay with C2C12 cells; 1610 nM in the assay on HepG2 cells.

In the case of `Cc1[nH]c(/C=C2\C(=O)Nc3ccc(C(=O)O)cc32)c(C)c1C(=O)O` [II.139, (3Z)-3-(4-carboxy-3,5-dimethyl-1H-pyrrol-2-ylmethylene)-2-oxo-2,3-dihydro-1H-indole-5-carboxylic acid], the IC50 on full length GRK5 is 1000 to 2000 nM; with 3T3-L1 cells, 1340 nM; in the assay with beta TC6 cells, over 10000 nM; in the assay on C2C12 cells, over 10000 nM; in the assay with HepG2 cells, over 10000 nM.

In the case of `CCN(CC)CCNC(=O)c1c(C)[nH]c(/C=C2\C(=O)Nc3ccc(C(=O)N[C@@H](C)c4ccccc4)cc32)c1C` [II.60, (3Z)-3-[(4-{[2-(diethylamino)ethyl]carbamoyl}-3,5-dimethyl-1H-pyrrol-2-yl)methylene]-2-oxo-N-[(1S)-1-phenylethyl]indoline-5-carboxamide], the concentration for half-maximal inhibition (IC50) was 2000 nM with 3T3-L1 cells, 2210 nM in the assay on beta TC6 cells, 4060 nM with C2C12 cells and 2290 nM in the assay with HepG2 cells.

With `C[C@@H](NC(=O)c1ccc2c(c1)/C(=C/Nc1ccc(CN3CCCCC3)cc1)C(=O)N2)c1cccc(Cl)c1` [II.80, (3Z)-N-[(1R)-1-(3-chlorophenyl)ethyl]-2-oxo-3-({[4-(piperidin-1-ylmethyl)phenyl]amino}methylene)indoline-5-carboxamide], the IC50 against full length GRK5 is under 100 nM; in the assay with 3T3-L1 cells it was over 10000 nM; in the assay on beta TC6 cells, 470 nM; with C2C12 cells it was over 10000 nM; in the assay with HepG2 cells it was 3900 nM.

Take `Cc1[nH]c(/C=C2\C(=O)Nc3ccc(C(=O)N[C@H](C)c4ccccc4)cc32)c(C)c1C(=O)N1CCCCC1` [II.14, (3Z)-3-{[3,5-dimethyl-4-(piperidin-1-ylcarbonyl)-1H-pyrrol-2-yl]methylene}-2-oxo-N-[(1R)-1-phenylethyl]indoline-5-carboxamide]: the 50% inhibitory concentration (IC50) against full length GRK5 is 100 to 1000 nM; with 3T3-L1 cells, 750 nM; in the assay on beta TC6 cells, 1190 nM; with C2C12 cells it was 1420 nM; with HepG2 cells it was 720 nM.

For the compound `CC[C@@H](NC(=O)c1ccc2c(c1)/C(=C/Nc1ccc(CN3CCCCC3)cc1)C(=O)N2)c1ccccc1` [II.69, (3Z)-2-oxo-N-[(1R)-1-phenylpropyl]-3-({[4-(piperidin-1-ylmethyl)phenyl]amino}methylene)-indoline-5-carboxamide], the IC50 against full length GRK5 was under 100 nM; in the assay with 3T3-L1 cells, over 10000 nM; in the assay on beta TC6 cells it was over 10000 nM; in the assay with C2C12 cells it was 5630 nM; with HepG2 cells it was 4510 nM.

Regarding `COC(=O)[C@H](COC(C)(C)C)NC(=O)c1c(C)[nH]c(/C=C2\C(=O)Nc3ccc(C(=O)O)cc32)c1C` [II.141, (3Z)-3-[4-(2-tert-butoxy-(1S)-1-methoxycarbonyl-ethylcarbamoyl)-3,5-dimethyl-1H-pyrrol-2-ylmethylene]-2-oxo-2,3-dihydro-1H-indole-5-carboxylic acid], the half-maximal inhibitory concentration (IC50) on full length GRK5 is 2000 to 10000 nM; in the assay on 3T3-L1 cells it was 3410 nM; in the assay on beta TC6 cells it was over 10000 nM; in the assay with C2C12 cells, over 10000 nM; in the assay on HepG2 cells it was over 10000 nM.

As to `Cc1[nH]c(/C=C2\C(=O)Nc3ccc(C(=O)N[C@H](C)c4ccccc4)cc32)c(C)c1C(=O)N1CCN(C)CC1` [II.15, (3Z)-3-({3,5-dimethyl-4-[(4-methylpiperazin-1-yl)carbonyl]-1H-pyrrol-2-yl}methylene)-2-oxo-N-[(1R)-1-phenylethyl]indoline-5-carboxamide], the half-maximal inhibitory concentration (IC50) was 1000 to 2000 nM on full length GRK5; 1120 nM with 3T3-L1 cells; 1680 nM in the assay with beta TC6 cells; 2370 nM with C2C12 cells; 540 nM in the assay with HepG2 cells.

Consider `CCN(CC)CCNC(=O)c1c(C)[nH]c(/C=C2\C(=O)Nc3ccc(C(=O)N[C@H](C)c4ccccc4)cc32)c1C` [II.59, (3Z)-3-[(4-{[2-(diethylamino)ethyl]carbamoyl}-3,5-dimethyl-1H-pyrrol-2-yl)methylene]-2-oxo-N-[(1R)-1-phenylethyl]indoline-5-carboxamide], for which the IC50 worked out at 630 nM in the assay with 3T3-L1 cells, 710 nM in the assay with beta TC6 cells, 1110 nM in the assay with C2C12 cells and 370 nM with HepG2 cells.
